Results reported in ChEMBL document CHEMBL1134001, “Novel inhibitors of the enzyme estrone sulfatase (ES)” (Bioorg Med Chem Lett, 2001).

Assays:
[1] = molecular target: T1, Steryl-sulfatase (Homo sapiens) (UniProt P08842); experiment: Relative potency compared to COUMATE against Estrone sulfatase
T1 sequence (whole entry): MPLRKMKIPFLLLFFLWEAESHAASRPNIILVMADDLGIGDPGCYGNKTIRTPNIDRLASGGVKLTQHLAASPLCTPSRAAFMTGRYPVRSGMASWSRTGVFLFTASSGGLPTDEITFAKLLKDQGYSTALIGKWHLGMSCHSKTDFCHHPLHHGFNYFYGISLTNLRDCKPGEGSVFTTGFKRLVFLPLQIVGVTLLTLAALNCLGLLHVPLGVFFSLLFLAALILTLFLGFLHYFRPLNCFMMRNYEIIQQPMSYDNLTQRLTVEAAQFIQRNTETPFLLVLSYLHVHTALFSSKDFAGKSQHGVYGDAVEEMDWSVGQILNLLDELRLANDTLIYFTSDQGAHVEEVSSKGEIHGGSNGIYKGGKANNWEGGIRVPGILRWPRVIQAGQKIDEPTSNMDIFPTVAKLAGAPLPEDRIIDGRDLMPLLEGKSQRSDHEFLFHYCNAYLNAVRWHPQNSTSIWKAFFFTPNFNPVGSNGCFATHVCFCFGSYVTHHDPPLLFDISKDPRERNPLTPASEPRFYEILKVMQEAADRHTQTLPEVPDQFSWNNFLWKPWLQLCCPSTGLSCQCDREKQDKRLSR

[2] = molecular target: T1, Steryl-sulfatase (Homo sapiens); experiment: Relative potency compared to EMATE against Estrone sulfatase
Steryl-sulfatase = molecular target: T2, Steryl-sulfatase (Homo sapiens, UniProt P08842); experiment: Inhibition of Estrone sulfatase
T2 sequence (P08842 whole entry): T1 sequence (whole entry)

[3] = molecular target: T1, Steryl-sulfatase (Homo sapiens)
Description: (§1) Relative potency against Estrone sulfatase

[4] = molecular target: T1, Steryl-sulfatase (Homo sapiens); remark: listed apart in the source
[5] = molecular target: T1, Steryl-sulfatase (Homo sapiens); remark: listed apart in the source
Description: as §1

NS(=O)(=O)Oc1ccc(C(=O)/C=C/c2ccccc2)cc1
Potency [1]: 0.0456
Potency [2]: 0.0019
IC50 (Steryl-sulfatase): 263 µM

NS(=O)(=O)Oc1ccc(C(=O)Cc2ccccc2)cc1
Potency [1]: 0.364
Potency [2]: 0.0152
IC50 (Steryl-sulfatase): 33 µM

CCCCCCCCC(=O)c1ccc(OS(N)(=O)=O)cc1
Potency [1]: 3.53
Potency [2]: 0.147
IC50 (Steryl-sulfatase): 3.4 µM

CCCCCCCC(=O)c1ccc(OS(N)(=O)=O)cc1
Potency [1]: 2.14
Potency [2]: 0.0893
IC50 (Steryl-sulfatase): 5.6 µM

CC(=O)c1ccc(OS(N)(=O)=O)cc1
Potency [1]: 0.0397
Potency [2]: 0.0016
IC50 (Steryl-sulfatase): 302 µM

NS(=O)(=O)Oc1ccc(C=O)cc1
Potency [1]: 0.0472
Potency [2]: 0.0019
IC50 (Steryl-sulfatase): 254 µM

CCCCC(=O)c1ccc(OS(N)(=O)=O)cc1
Potency [1]: 0.574
Potency [2]: 0.0239
IC50 (Steryl-sulfatase): 20.9 µM

CCCCCCC(=O)c1ccc(OS(N)(=O)=O)cc1
Potency [1]: 2.4
Potency [2]: 0.1
IC50 (Steryl-sulfatase): 5 µM

C[C@]12CC[C@@H]3c4ccc(OS(N)(=O)=O)cc4CCC3[C@@H]1CCC2=O (single isomer, unassigned) [EMATE]
Potency [1]: 24
Potency [3]: 1
IC50 (Steryl-sulfatase): 0.5 µM

NS(=O)(=O)Oc1ccc(C(=O)c2ccccc2)cc1
Potency [1]: 0.191
Potency [2]: 0.0079
IC50 (Steryl-sulfatase): 63 µM

CCCCCCCCCC(=O)c1ccc(OS(N)(=O)=O)cc1
Potency [1]: 0.923
Potency [2]: 0.0385
IC50 (Steryl-sulfatase): 13 µM

CCCC(=O)c1ccc(OS(N)(=O)=O)cc1
Potency [1]: 0.301
Potency [2]: 0.0126
IC50 (Steryl-sulfatase): 39.8 µM

Cc1cc(=O)oc2cc(OS(N)(=O)=O)ccc12
Potency [4]: 0.0417
Potency [5]: 1
IC50 (Steryl-sulfatase): 12 µM
